Assay results as given in paper PMC2947196 (2010).

What was measured:
[1] = molecular target: MCT1 (monocarboxylate transporter 1) (Rattus norvegicus, UniProt P53987); experiment: inhibition of L-[…]lactate uptake in Xenopus oocytes; format: cell-based; conditions: read-out: Inhibitor-insensitive component (%)
[2] = molecular target: T1, MCT2 (monocarboxylate transporter 2) (Rattus norvegicus, UniProt Q63344); experiment: as above; format: cell-based; conditions: read-out: % inhibition at 10 nM
T1 sequence (Q63344 1-489): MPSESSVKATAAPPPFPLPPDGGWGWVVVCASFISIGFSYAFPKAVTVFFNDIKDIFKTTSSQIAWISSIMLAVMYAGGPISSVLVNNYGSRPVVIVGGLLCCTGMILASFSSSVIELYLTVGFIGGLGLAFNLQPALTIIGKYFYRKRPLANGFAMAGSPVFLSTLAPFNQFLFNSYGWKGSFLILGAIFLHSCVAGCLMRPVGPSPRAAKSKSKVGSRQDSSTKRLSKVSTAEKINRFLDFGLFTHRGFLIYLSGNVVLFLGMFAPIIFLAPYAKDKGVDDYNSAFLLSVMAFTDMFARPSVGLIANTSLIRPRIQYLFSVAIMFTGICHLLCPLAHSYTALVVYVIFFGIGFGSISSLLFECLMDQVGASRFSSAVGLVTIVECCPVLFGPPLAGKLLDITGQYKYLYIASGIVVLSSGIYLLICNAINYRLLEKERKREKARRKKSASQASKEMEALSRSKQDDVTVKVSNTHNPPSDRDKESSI

CC(O)C(=O)O = experiment: cells, lysate or membranes

MCT1 (monocarboxylate transporter 1), sequence (P53987 whole entry): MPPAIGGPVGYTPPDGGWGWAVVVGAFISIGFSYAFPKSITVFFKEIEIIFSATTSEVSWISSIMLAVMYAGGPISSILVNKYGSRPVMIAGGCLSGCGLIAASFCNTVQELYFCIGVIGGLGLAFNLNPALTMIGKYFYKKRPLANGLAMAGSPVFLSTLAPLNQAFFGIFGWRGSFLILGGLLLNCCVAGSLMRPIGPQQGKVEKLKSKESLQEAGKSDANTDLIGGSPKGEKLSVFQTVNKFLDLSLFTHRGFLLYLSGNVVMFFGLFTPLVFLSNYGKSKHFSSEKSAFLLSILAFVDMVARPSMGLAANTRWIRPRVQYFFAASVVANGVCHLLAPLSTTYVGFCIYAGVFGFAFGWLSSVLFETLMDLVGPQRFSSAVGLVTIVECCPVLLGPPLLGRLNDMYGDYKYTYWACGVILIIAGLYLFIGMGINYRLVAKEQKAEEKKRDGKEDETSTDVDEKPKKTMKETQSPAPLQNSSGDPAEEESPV

Molecule | activity at 0.1 µM [1] [%] | inhibition at 0.01 µM [2] [%] | Km (CC(O)C(=O)O) [mM]
Cc1n[nH]c(C)c1Cc1sc2c(c1C(=O)N1C[C@H](O)CO1)c(=O)n(C)c(=O)n2CC(C)C [AR-C155858] | 1.9 ± 0.6 | ~70 | –
MCT1 (monocarboxylate transporter 1) (Rattus norvegicus) | – | – | 4.4 ± 1.5
